{
  "source": "patent US5354861A",
  "about": "“2-(benzyl)-3-arylbenzofurans as antitumour and hypocholesterolemic agents” (National University of Singapore, priority 1992, dated 1994)",
  "key": {"human breast carcinoma": {"system": "human breast carcinoma", "conditions": "clinical trials; prior art; cited from earlier work"}, "estrogen receptor (ER) [1]": {"system": "estrogen receptor (ER)", "conditions": "prior art, cited from earlier work"}, "[2]": {"system": "antiestrogen-binding sites (AEBS)", "assay": "Competitive displacement of [3H]tamoxifen from AEBS in EL4 whole cells", "conditions": "5 nM [3H]tamoxifen, competitor 50 nM-1000 nM, tamoxifen = 100, mean ± SEM of two experiments", "procedure": "^a Determined by competitive ligand binding assays using EL4 whole\ncells as the source of AEBS. Cells were incubated with 5 nM [^3\nunlabelled competing ligand (50 nM-1000 nM). The binding reaction was\nwhere RBA50 is the concentration required to reduce bound [^3\ncompetiting ligand). The data are the mean ± SEM of two experiments."}, "estrogen receptor (ER) [3]": {"biological_target": "T1, estrogen receptor (ER) (Homo sapiens, UniProt P03372)", "T1 construct": "ER present in an established human breast carcinoma-derivedcell line, MCF7; endogenous in cells; host or cells: MCF7 whole cells", "T1 sequence (P03372 1-595)": "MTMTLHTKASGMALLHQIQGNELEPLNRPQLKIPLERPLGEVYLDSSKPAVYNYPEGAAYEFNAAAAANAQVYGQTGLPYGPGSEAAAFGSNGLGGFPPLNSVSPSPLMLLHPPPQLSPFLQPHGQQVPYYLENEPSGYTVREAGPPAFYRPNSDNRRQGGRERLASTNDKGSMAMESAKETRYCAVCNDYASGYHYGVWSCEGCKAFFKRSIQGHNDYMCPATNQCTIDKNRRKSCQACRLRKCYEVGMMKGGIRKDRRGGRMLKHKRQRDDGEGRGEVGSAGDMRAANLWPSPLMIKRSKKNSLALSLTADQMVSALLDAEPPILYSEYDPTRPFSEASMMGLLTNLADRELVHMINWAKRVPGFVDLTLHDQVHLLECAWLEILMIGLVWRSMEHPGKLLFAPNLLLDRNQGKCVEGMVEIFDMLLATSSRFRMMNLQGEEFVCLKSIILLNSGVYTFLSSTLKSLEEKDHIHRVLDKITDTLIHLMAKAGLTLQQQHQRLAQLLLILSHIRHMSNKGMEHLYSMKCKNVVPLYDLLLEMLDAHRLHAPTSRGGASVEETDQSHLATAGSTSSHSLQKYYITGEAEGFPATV", "assay": "Competitive displacement of [3H]estradiol from ER in MCF7 whole cells", "assay_type": "binding", "conditions": "5 nM [3H]estradiol, hundredfold excess of test compound, mean ± SEM of two experiments, read-out: Bound [3H]estradiol (% of control)", "procedure": "^a Determined by competitive ligand binding assays using MCF7 whole\ncells as the receptor source. Cells were incubated with 5 nM [^3\nH]estradiol in the absence or presence of a hundredfold excess of DES or\neach test compound. The binding reaction was performed and bound [^3\nH]estradiol quantitated as described in the experimental section.\n^b Bound [^3 H]estradiol in the absence of unlabelled competing\nligand was set at 100%. The data are the mean ± SEM of two experiments"}, "MCF7 cells": {"system": "MCF7 cells", "assay": "[3H]Thymidine incorporation (antiproliferative activity) by MCF7 cells", "assay_type": "cell-based", "conditions": "Homo sapiens, 48 hours, mean ± SEM of two experiments, read-out: IC50 MCF7 (inhibition of [3H]thymidine incorporation)", "procedure": "(§1) After 48 hours, each well was pulsed with [^3 H]thymidine (New England Nuclear)(74 KBq/well, 0.02 ml/well) for 60 minutes. Macromolecular incorporation of [^3 H]thymidine was quantitated by harvesting cells on a Brandel harvester fitted with scintillant-coated glass microfibre filters (Ready Filters, Beckman).\n(§2) [^3 H]Thymidine incorporation by MCF7 and RTx6 cells was determined by the same technique with the following modifications: (i) cells were plated at 4,500 cells/well (0.18 ml/well); (ii) compounds and [^3 H]thymidine (37 KBq/well, 0.02 ml/well) were added 24 hours after plating; (iii) cells were trypsinized (0.05 ml of 0.05%/0.53 mM EDTA/well) prior to harvesting."}, "EL4 cells [4]": {"system": "EL4 cells", "assay": "[3H]Thymidine incorporation (antiproliferative activity) by EL4 cells", "assay_type": "cell-based", "conditions": "Mus musculus, 48 hours, mean ± SEM of two experiments, read-out: IC50 EL4 (inhibition of [3H]thymidine incorporation)", "procedure": "as §1, §2"}, "[5]": {"system": "cholesterol biosynthesis by EL4 cells", "assay": "De novo cholesterol biosynthesis from [3H]acetate by EL4 cells", "assay_type": "cell-based", "conditions": "for % total radioactivity incorporated as cholesterol, experiment I / % total radioactivity incorporated as cholesterol, experiment II: single determinations of triplicate; for % total radioactivity incorporated as cholesterol, Mean: two experiments in triplicate", "procedure": "(§3) De novo synthesis of cholesterol by EL4 cells from [^3 H]acetic acid, sodium salt (Amersham) (103 GBq/mmol) was quantitated using [4-^14 C]cholesterol (Amersham) (2.04 GBq/mmol) as internal standard by the method of Ho et al., J.Exp.Med.(1977) 145:1531-1549). Each determination was performed in triplicate, each consisting of 0.8 ml of a cell suspension (2×10^7 EL4 cells/ml) incubated with [^3 H]acetate (0.25 mM) and the test compound (0.1 ml, 10^-6 M-10^-4 M) for 5 or 48 hours at 37° C.\n^a EL4 cells (20 × 10^6 cells/ml in well) were incubated\nwith 0.25 mM [^3 H]acetate in the absence or presence of 2 (10^-6\n^b EL4 cells (20 × 10^6 cells/ml in well) were incubated\nwith 0.25 mM [^3 H] acetate in the absence or presence of 2 (10^-\nwith 0.25 mM [^3 H]acetate in the absence or presence of 4 (10^-4"}, "EL4 cells [6]": {"system": "EL4 cells", "assay": "Cell viability of EL4 cells by trypan blue exclusion", "assay_type": "cell-based", "conditions": "compound 2, 5 hours", "procedure": "(§4) Cell counts were performed manually using a Neubauer hemocytometer. Cell viability was assessed by trypan blue exclusion. The table below (Table HI) is a summary\nas §3\n(§5) ^e Cell viability was estimated by trypan blue exclusion.\n(§6) ^d Cell viability was estimated by trypan blue exclusion."}, "[7]": {"assay": "Cell viability of EL4 cells by trypan blue exclusion", "assay_type": "cell-based", "conditions": "mouse, el4 cells, trypan blue exclusion", "procedure": "as §4, §3, §5, §6"}, "[8]": {"conditions": "prior art; cited from earlier work"}, "[9]": {"conditions": "compound 2, concentration 10^-M [sic], 48 hours"}},
  "note": "Several values for one entry are separate records, joined by “and”; a condition that tells them apart may be missing. Equal entries are not always repeated.",
  "data": [
    {"smiles": "CC/C(=C(\\c1ccccc1)c1ccc(OCCN(C)C)cc1)c1ccccc1", "note": "[1a (Tamoxifen), 1-[4-(2-dimethylaminoethoxy)phenyl]-1,2-diphenylbut1-(Z)-ene]", "values": [
      {"measurement": "adverse side effects (in words)", "setting": "human breast carcinoma", "value": "low incidence of adverse side effects"},
      {"measurement": "clinical efficacy as antiestrogen (in words)", "setting": "human breast carcinoma", "value": "established its efficacy"},
      {"measurement": "antagonist/agonist character (in words)", "setting": "estrogen receptor (ER) [1]", "value": "partial antagonists/agonists"},
      {"measurement": "RBA", "setting": "[2]", "value": 100}
    ]},
    {"smiles": "COc1ccc2c(-c3ccc(OCCN(C)C)cc3)c(Cc3ccc(Cl)cc3)oc2c1", "note": "[Compound 1]", "values": [
      {"measurement": "remaining activity at 0.5 µM", "setting": "estrogen receptor (ER) [3]", "value": "98 ± 1", "unit": "%"},
      {"measurement": "RBA", "setting": "[2]", "value": "391 ± 195"},
      {"measurement": "IC50", "setting": "MCF7 cells", "value": "5025 ± 25", "unit": "nM"},
      {"measurement": "IC50", "setting": "EL4 cells [4]", "value": "950 ± 50", "unit": "nM"}
    ]},
    {"smiles": "COc1ccc2c(-c3ccc(OCCN4CCCC4)cc3)c(Cc3ccc(Cl)cc3)oc2c1", "note": "[Compound 2, 2-(p-Chlorobenzyl)-3-[p-(2-pyrrolidinoethoxy)phenyl]-6-methoxybenzo[b]furan]", "values": [
      {"measurement": "RBA", "setting": "[2]", "value": "268 ± 92"},
      {"measurement": "inhibition of cholesterol biosynthesis (in words)", "setting": "[5]; as early as 5 hours after treatment", "value": "significant inhibition of cholesterol biosynthesis"},
      {"measurement": "% inhibition of cholesterol synthesis", "setting": "[5]; compound 2, 10^-6 M, 5 hours, p < 0.01, Student's t test", "value": 48, "unit": "%"},
      {"measurement": "% total radioactivity incorporated as cholesterol, experiment I", "setting": "[5]; compound 2, 10^-6 M, 5 hours", "value": "0.13% and 0.10% and 0.12%"},
      {"measurement": "% total radioactivity incorporated as cholesterol, experiment II", "setting": "[5]; compound 2, 10^-6 M, 5 hours", "value": "0.11% and 0.12% and 0.14%"},
      {"measurement": "% total radioactivity incorporated as cholesterol, Mean", "setting": "[5]; compound 2, 10^-6 M, 5 hours, control 0.23 ± 0.02", "value": "0.12 ± 0.01", "unit": "%"},
      {"measurement": "% inhibition of cholesterol synthesis", "setting": "[5]; compound 2, concentration 10^-M [sic], 48 hours, p < 0.01, Student's t test", "value": 47, "unit": "%"},
      {"measurement": "% total radioactivity incorporated as cholesterol, experiment I", "setting": "[5]; [9]", "value": "0.16% and 0.15% and 0.24%"},
      {"measurement": "% total radioactivity incorporated as cholesterol, experiment II", "setting": "[5]; [9]", "value": "0.14% and 0.17%"},
      {"measurement": "% total radioactivity incorporated as cholesterol, Mean", "setting": "[5]; compound 2, concentration 10^-M [sic], 48 hours, control 0.32 ± 0.02", "value": "0.17 ± 0.02", "unit": "%"},
      {"measurement": "cell viability (in words)", "setting": "EL4 cells [6]", "value": "not associated with loss of cell viability"},
      {"measurement": "viability at 5 h, 1 µM", "setting": "[7]; compound 2, 10^-6 M, 5 hours, control 96", "value": 91, "unit": "%"},
      {"measurement": "viability at 48 h", "setting": "[7]; compound 2, concentration 10^-M [sic], 48 hours, control 92", "value": 87, "unit": "%"},
      {"measurement": "IC50", "setting": "MCF7 cells", "value": "2300 ± 100", "unit": "nM"},
      {"measurement": "IC50", "setting": "EL4 cells [4]", "value": "475 ± 225", "unit": "nM"}
    ]},
    {"smiles": "COc1ccc2c(-c3ccc(OCCN4CCCCC4)cc3)c(Cc3ccc(Cl)cc3)oc2c1", "note": "[Compound 3, 2-(p-Chlorobenzyl)-3-[p-(2-piperidinoethoxy)phenyl]-6-methoxybenzo[b]furan]", "values": [
      {"measurement": "remaining activity at 0.5 µM", "setting": "estrogen receptor (ER) [3]", "value": "93.5 ± 0.5", "unit": "%"},
      {"measurement": "RBA", "setting": "[2]", "value": "605 ± 371"},
      {"measurement": "IC50", "setting": "MCF7 cells", "value": "2050 ± 50", "unit": "nM"},
      {"measurement": "IC50", "setting": "EL4 cells [4]", "value": "300 ± 150", "unit": "nM"}
    ]},
    {"smiles": "COc1ccc2c(-c3ccc(OCCN4CCOCC4)cc3)c(Cc3ccc(Cl)cc3)oc2c1", "note": "[Compound 4]", "values": [
      {"measurement": "remaining activity at 0.5 µM", "setting": "estrogen receptor (ER) [3]", "value": "104 ± 2.5", "unit": "%"},
      {"measurement": "RBA", "setting": "[2]", "value": "1828 ± 446"},
      {"measurement": "% inhibition of cholesterol synthesis", "setting": "[5]; compound 4, 10^-4 M, 5 hours, p < 0.05, Student's t test", "value": 56, "unit": "%"},
      {"measurement": "% total radioactivity incorporated as cholesterol, experiment I", "setting": "[5]; compound 4, 10^-4 M, 5 hours", "value": "0.19% and 0.09% and 0.05%"},
      {"measurement": "% total radioactivity incorporated as cholesterol, experiment II", "setting": "[5]; compound 4, 10^-4 M, 5 hours", "value": "0.11% and 0.12%"},
      {"measurement": "% total radioactivity incorporated as cholesterol, Mean", "setting": "[5]; compound 4, 10^-4 M, 5 hours, control 0.25 ± 0.02", "value": "0.11 ± 0.03", "unit": "%"},
      {"measurement": "incorporation of [3H]acetate into cholesterol (in words)", "setting": "[5]; compound 4 at higher concentration (Table V)", "value": "decreased incorporation of [^3 H]acetate into cholesterol"},
      {"measurement": "viability at 5 h, 100 µM", "setting": "[7]; compound 4, 10^-4 M, 5 hours, control 96", "value": 79, "unit": "%"},
      {"measurement": "IC50", "setting": "MCF7 cells", "value": "6500 ± 500", "unit": "nM"},
      {"measurement": "IC50", "setting": "EL4 cells [4]", "value": "335 ± 145", "unit": "nM"}
    ]},
    {"smiles": "O=C(c1ccc(OCCN2CCCC2)cc1)c1c(-c2ccc(O)cc2)sc2cc(O)ccc12", "note": "[LY117018]", "values": [
      {"measurement": "antagonist/agonist character (in words)", "setting": "estrogen receptor (ER) [1]", "value": "partial antagonists/agonists (like tamoxifen)"},
      {"measurement": "duration of action in vivo (in words)", "setting": "[8]", "value": "shorter duration of action in vivo"}
    ]},
    {"smiles": "COc1ccc(C2=C(C(=O)c3ccc(OCCN4CCCC4)cc3)c3ccccc3CC2)cc1", "note": "[Trioxifene]", "values": [
      {"measurement": "clinical efficacy as antiestrogen (in words)", "setting": "human breast carcinoma", "value": "an effective antiestrogen in clinical trials"},
      {"measurement": "estrogenic activity (in words)", "setting": "estrogen receptor (ER) [1]; compared with tamoxifen", "value": "possesses greater estrogenic activity than tamoxifen"}
    ]}
  ]
}
